In patent US10947196B2, “Beta adrenergic agonist and methods of using the same” (CURASEN THERAPEUTICS, INC., priority 2019, dated 2021):
Like-named read-outs stand apart in the source and are kept apart here.

Columns and labels:
[1] = Microsomal stability (dog); type: in vitro ADME; conditions: liver microsomes 0.5 mg/mL; method gives CLint in μL/min/mg protein
Protocol: (§1) The master solution was prepared as follows.
(§2) With NADPH: 10 μL of 20 mg/mL liver microsomes and 40 μL of 10 mM NADPH were added to the incubations. The final concentrations of microsomes and NADPH were 0.5 mg/mL and 1 mM, respectively.
(§3) Without NADPH: 10 μL of 20 mg/mL liver microsomes and 40 μL of ultra-pure H2O were added to the incubations. The final concentration of microsomes was 0.5 mg/mL.
(§4) The reaction was started with the addition of 4 μL of 3, 10, 30 and 100 μM test compound solution or control compound solution at the final concentration of 0.03, 0.1, 0.3 and 1 μM and carried out at 37° C.
(§5) Aliquots of 50 μL were taken from the reaction solution at 0, 15, 30, 45 and 60 min. The reaction was stopped by the addition of 4 volumes of cold acetonitrile with IS (100 nM alprazolam, 200 nM labetalol, 200 nM caffeine and 2 μM ketoprofen). Samples were centrifuged at 3, 220 g for 40 minutes. Aliquot of 100 μL of the supernatant was mixed with 100 μL of ultra-pure H2O and then used for LC-MS/MS analysis.
(§6) Peak areas were determined from extracted ion chromatograms. The slope value, k, was determined by linear regression of the natural logarithm of the remaining percentage of the parent drug vs. incubation time curve.
(§7) The in vitro half-life (in vitro t1/2) was determined from the slope value: in vitro t1/2=−(0.693/k) […]

[2] = Microsomal stability (human); type: in vitro ADME; conditions: liver microsomes 0.5 mg/mL; method gives CLint in μL/min/mg protein
Protocol: as §1, §2, §3, §4, §5, §6, §7

[3] = Microsomal stability (rat); type: in vitro ADME; conditions: liver microsomes 0.5 mg/mL; method gives CLint in μL/min/mg protein
Protocol: as §1, §2, §3, §4, §5, §6, §7

[4] = molecular target: β2 adrenergic receptors in human astrocytoma cells (1321N1) (Homo sapiens (Human), UniProt P07550); test: cAMP HTRF assay in human astrocytoma cells (1321N1); type: cell-based; conditions: Endogenous receptor, 1321N1 cells
β2 adrenergic receptors in human astrocytoma cells (1321N1), sequence (P07550 whole entry): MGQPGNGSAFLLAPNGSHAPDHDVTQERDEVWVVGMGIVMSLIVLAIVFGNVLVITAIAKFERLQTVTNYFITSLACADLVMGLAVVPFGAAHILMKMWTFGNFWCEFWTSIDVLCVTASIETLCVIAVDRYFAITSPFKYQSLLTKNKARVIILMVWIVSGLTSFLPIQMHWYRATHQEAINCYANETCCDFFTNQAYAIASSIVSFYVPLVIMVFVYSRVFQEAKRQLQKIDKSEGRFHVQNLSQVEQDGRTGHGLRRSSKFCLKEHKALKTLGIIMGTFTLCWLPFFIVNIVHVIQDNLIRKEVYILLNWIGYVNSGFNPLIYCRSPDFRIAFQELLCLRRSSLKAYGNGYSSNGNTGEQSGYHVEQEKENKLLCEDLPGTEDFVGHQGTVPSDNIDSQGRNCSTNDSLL
Outline: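 Intracellular cAMP quantified by Eu-donor/d2-acceptor HTRF after 30 min compound exposure at 37° C in stimulation buffer with IBMX. Concentrations ran 10 μM top, 5-fold steps, 10 points. Cell lines: 1321N1 astrocytoma and CHO expressing β1 or β2; EC50 via four-parameter fit, relative efficacy against isoproterenol.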

B3-AR = B3-AR (Homo sapiens (Human), UniProt P13945); test: cAMP potency assay, B3-AR expressing CHO-K1 cells; type: cell-based
B3-AR, sequence (P13945 whole entry, species assumed): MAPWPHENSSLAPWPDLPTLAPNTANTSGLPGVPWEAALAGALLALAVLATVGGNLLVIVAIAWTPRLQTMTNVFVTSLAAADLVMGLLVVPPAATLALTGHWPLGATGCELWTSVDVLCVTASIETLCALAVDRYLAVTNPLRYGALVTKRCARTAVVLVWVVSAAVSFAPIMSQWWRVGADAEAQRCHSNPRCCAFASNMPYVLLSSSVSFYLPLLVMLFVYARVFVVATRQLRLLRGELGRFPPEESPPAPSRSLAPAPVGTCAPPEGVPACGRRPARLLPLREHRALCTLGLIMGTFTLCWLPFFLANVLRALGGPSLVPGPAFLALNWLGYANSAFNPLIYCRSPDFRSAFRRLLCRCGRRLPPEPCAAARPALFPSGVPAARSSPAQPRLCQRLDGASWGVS

[5] = read-out: Average pEC50 [Receptor subtype: B3-AR, Cell type: CHO-K1] (converted)

Row | Average pEC50 [Receptor subtype: Endogenous; Cell type: 1321N1] [4] | EC50 ([4]; read-out: Average EC50 [Receptor subtype: Endogenous, Cell type: 1321N1]) [nM] | EC50 (B3-AR; read-out: Average EC50 [Receptor subtype: B3-AR, Cell type: CHO-K1]) [nM] | Structure (SMILES) | Intrinsic clearance (CLint), dog liver microsomes [1] [µL/min/mg protein] | Microsomal stability, Human [2] [µL/min/mg protein] | Microsomal stability, Rat [3] [µL/min/mg protein] | EC50 (B3-AR; [5]) [nM] | EC50 ([4]; read-out: Average pEC50 [Receptor subtype: Endogenous, Cell type: 1321N1] (converted)) [nM]
1 |  |  |  | CC(C)(C)NC[C@H](O)c1cccc(C(F)(F)F)n1 [Compound 03-3] | 7.99 | 3.49 | 3.48 |  | 
2 | C-B | 10 to 100 | 100 to 1000 | CC(C)(C)NC[C@H](O)c1cccc(C#N)n1 [Compound 03-5, (S)-6-(2-(tert-butylamino)-1-hydroxyethyl)picolinonitrile] | 4.32 | 2.96 | 2.53 | > 1000 | 
3 |  |  |  | Cc1ncccc1[C@@H](O)CNC(C)(C)C [Compound 03-115] |  |  |  | > 1000 | 100 to 1000
